In publication PMC4932617 (Meta Gene, 2016):

Legend:
[1] = higher in poor than in extensive metabolizers; ref Klotz, 2006; cited from earlier work
intra-gastric pH = assay: Intra-gastric pH monitoring; assay type: in vivo, human; details: for pH on Day 6: n=1; for Difference in intra-gastric pH between baseline and day 6: rapid and ultra-rapid metabolizers (CYP2C19*17 carriers)

In the case of `Cc1c(OCC(F)(F)F)ccnc1C[S+]([O-])c1nc2ccccc2[nH]1` (stereo not drawn) [lansoprazole], the “AUC in poor metabolizers relative to extensive metabolizers” value [1] is given as 4.5 fold.

In the case of `COc1ccc2nc([S@@+]([O-])Cc3ncc(C)c(OC)c3C)[nH]c2c1` [Esomeprazole], the “pH on Day 6” value (intra-gastric pH; normal metabolizer, esomeprazole 40 mg/day for 5 days, baseline pH 0.40) is reported as 3.40, the “Difference in intra-gastric pH between baseline and day 6” value (intra-gastric pH; 40 mg/day for 5 days) is reported as “noteworthy differences could not be observed” and the “pH on Day 6” value (intra-gastric pH; rapid metabolizer, esomeprazole 40 mg/day for 5 days, baseline pH 1.25) is reported as 1.20.

In the case of `COCCCOc1ccnc(C[S+]([O-])c2nc3ccccc3[nH]2)c1C` (stereo not drawn) [rabeprazole], the “AUC in poor metabolizers relative to extensive metabolizers” value [1] is given as 4 fold.

In the case of `COc1ccc2[nH]c([S+]([O-])Cc3ncc(C)c(OC)c3C)nc2c1` (stereo not drawn) [omeprazole], the “AUC in poor metabolizers relative to extensive metabolizers” value [1] is listed as 7.5 fold.

For `COc1ccnc(C[S+]([O-])c2nc3ccc(OC(F)F)cc3[nH]2)c1OC` (stereo not drawn) [Pantoprazole], the “pH on Day 6” value (intra-gastric pH; normal metabolizer, pantoprazole 40 mg/day for 5 days, baseline pH 1.50) was 4.10, the “Gastric acid suppression compared to esomeprazole” value (intra-gastric pH; poor and intermediate metabolizers, 40 mg/day for 5 days) was “improved gastric acid suppression” and the “Difference in intra-gastric pH between baseline and day 6” value (intra-gastric pH; 40 mg/day for 5 days) was “noteworthy differences could not be observed”.
